Data on eleven molecules can be found in ChEMBL document CHEMBL1201862, “PubChem BioAssay data set” (2004).

Test systems include OVCAR-8; RXF 393; K562; SNB-75; UO-31; HT-29; HL-60; A549; SF-268; HOP-92; EKVX; SW-620; COLO 205; CCRF-CEM; BT-549; NCI-H460; MDA-MB-435; OVCAR-3; HOP-62.
Test in all cases: inhibition of tumour cell growth, NCI panel, 48 h

Structures are written as SMILES.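 These data come from cells grown in 96-well plates and exposed to compound for 48 hours at five concentrations. GI50 = concentration required for 50% inhibition of growth.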 Active and inactive are the calls of the source. Rule as the data show it: active = GI50 up to about 1.1 µM and inactive = higher. A value given as a limit tells only on which side of the number the result lay.

For `Clc1nc(Nc2nc3ccccc3[nH]2)nc(Cl)c1-c1ccccc1`, the GI50 was 27.7 µM (inactive) with OVCAR-8; 16.9 µM (inactive) in the assay with RXF 393; 25.2 µM (inactive) in the assay on K562; 9.38 µM (inactive) in the assay with SNB-75; 20.8 µM (inactive) in the assay on UO-31; 16.8 µM (inactive) in the assay with HT-29. The GI50 in the assay on HL-60 was 36.1 µM (inactive); in the assay on A549 it was 34.7 µM (inactive); in the assay on SF-268 it was 33 µM (inactive); in the assay with HOP-92, 8.65 µM (inactive); in the assay with EKVX, 23.6 µM (inactive); in the assay with SW-620, 11.2 µM (inactive). The GI50 was 19.1 µM (inactive) with COLO 205; 19.5 µM (inactive) in the assay on CCRF-CEM; 16.5 µM (inactive) in the assay on BT-549; 12.2 µM (inactive) in the assay on NCI-H460; 29.3 µM (inactive) with MDA-MB-435.

On to `CCOC(=O)[C@H]1O[C@@H]1C(=O)NC(CC(C)C)C(=O)NCCC(C)C` (stereo partly drawn), for which the GI50 with OVCAR-8, with K562, with SNB-75, with UO-31, with HT-29 and in the assay with A549 was > 100 µM (inactive) each time. The GI50 with SF-268, in the assay with HOP-92, with EKVX, in the assay with SW-620, with COLO 205 and in the assay on CCRF-CEM was > 100 µM (inactive) throughout. Further, the GI50 with OVCAR-3, with HOP-62, in the assay on BT-549, in the assay with NCI-H460 and in the assay on MDA-MB-435 was > 100 µM (inactive) in each case.

On to `CC12CCCC3(CC(=O)C(C)(C)C3C(=O)C1)C2` (stereo not drawn), for which the GI50 in the assay on OVCAR-8, in the assay on K562, in the assay with SNB-75, in the assay with UO-31, in the assay on HT-29 and in the assay on HL-60 was > 100 µM (inactive) throughout. Moreover, the GI50 with A549, in the assay with SF-268, in the assay with HOP-92, in the assay with EKVX, in the assay with SW-620 and with COLO 205 was > 100 µM (inactive) each time. The GI50 in the assay on CCRF-CEM, in the assay on OVCAR-3, in the assay on HOP-62, in the assay on BT-549, in the assay with NCI-H460 and with MDA-MB-435 was > 100 µM (inactive) each time.

Turning to `Cc1ccc(C(=O)C#Cc2cn(C3CC(O)C(CO)O3)c(=O)[nH]c2=O)cc1` (stereo not drawn), the GI50 in the assay on OVCAR-8, with RXF 393, with SNB-75, with UO-31, in the assay on HT-29 and with A549 was > 100 µM (inactive) each time. The GI50 in the assay with SF-268 was > 100 µM (inactive); in the assay on HOP-92, 32.6 µM (inactive); in the assay on EKVX it was > 100 µM (inactive); in the assay with SW-620, 31 µM (inactive); in the assay on COLO 205, 38.6 µM (inactive); with OVCAR-3, 26.2 µM (inactive). The GI50 in the assay with HOP-62, in the assay with BT-549, in the assay on NCI-H460 and in the assay with MDA-MB-435 was > 100 µM (inactive) throughout.

On to `COc1cc(OC)c(OC)cc1/C=C/c1ccc2ccccc2n1`, for which the GI50 is > 10 µM (inactive) in the assay on OVCAR-8; 5.33 µM (inactive) with K562; 9.71 µM (inactive) in the assay with SNB-75; 4.35 µM (inactive) in the assay on HT-29; 3.27 µM (inactive) in the assay on HL-60; > 10 µM (inactive) with A549. Also, the GI50 was > 10 µM (inactive) in the assay on SF-268; 5.57 µM (inactive) in the assay on HOP-92; > 10 µM (inactive) in the assay with SW-620; > 10 µM (inactive) in the assay with COLO 205; 6.17 µM (inactive) in the assay on CCRF-CEM; > 10 µM (inactive) in the assay on OVCAR-3. Further, the GI50 in the assay with HOP-62 was > 10 µM (inactive); in the assay on BT-549, 8.89 µM (inactive); with MDA-MB-435 it was 7.23 µM (inactive).

In the case of `CNN1C(=O)c2c(C)c(C)c(C#N)c(N)c2C1=O`, the GI50 was > 100 µM (inactive) in the assay on OVCAR-8; 40.8 µM (inactive) in the assay on RXF 393; > 100 µM (inactive) in the assay on K562; 83.2 µM (inactive) in the assay on SNB-75; > 100 µM (inactive) in the assay on UO-31; > 100 µM (inactive) in the assay with HL-60. For the same molecule, the GI50 in the assay on A549, in the assay with SF-268, with HOP-92, in the assay with EKVX, in the assay on SW-620 and with COLO 205 was > 100 µM (inactive) each time. Moreover, the GI50 in the assay on CCRF-CEM, with OVCAR-3, in the assay on BT-549, in the assay on NCI-H460 and in the assay with MDA-MB-435 was > 100 µM (inactive) in each case.

For `C/C=C1/CN2CCC34c5ccccc5N(C)C23C2CC1C4(C(=O)OC)C(O)O2` (stereo not drawn), the GI50 in the assay on OVCAR-8, in the assay on K562, with SNB-75, with UO-31, in the assay on HT-29 and in the assay with HL-60 was > 100 µM (inactive) each time. Besides, the GI50 in the assay on A549, with SF-268, in the assay with HOP-92, in the assay with EKVX, with SW-620 and in the assay with COLO 205 was > 100 µM (inactive) in each case. Further, the GI50 in the assay on CCRF-CEM, in the assay with OVCAR-3, with HOP-62, in the assay with BT-549, in the assay on NCI-H460 and with MDA-MB-435 was > 100 µM (inactive) each time.

In the case of `c1ccc2c(c1)Nc1cccc3c1c-2nc1cc2ccccc2cc13`, the GI50 is 1.57 µM (inactive) in the assay on RXF 393; 0.513 µM (active) in the assay with K562; 1.41 µM (inactive) in the assay with SNB-75; 1.63 µM (inactive) in the assay on UO-31; 1.72 µM (inactive) in the assay with HT-29; 1.8 µM (inactive) with A549. Moreover, the GI50 in the assay with SF-268 was 1.71 µM (inactive); with HOP-92, 1.51 µM (inactive); with EKVX, 1.55 µM (inactive); with SW-620, 1.53 µM (inactive); in the assay with COLO 205, 1.63 µM (inactive); with OVCAR-3 it was 1.59 µM (inactive). The GI50 with HOP-62 was 1.72 µM (inactive); with BT-549 it was 12.4 µM (inactive); in the assay with NCI-H460, 1.65 µM (inactive); in the assay with MDA-MB-435, 2 µM (inactive).

As for `CN(C)CCNc1nc2c(c(=O)n(C)c(=O)n2C)n1C`, the GI50 with OVCAR-8, with RXF 393, in the assay on K562, in the assay with UO-31, in the assay with HT-29 and with HL-60 was > 100 µM (inactive) in each case. The GI50 with A549, in the assay with SF-268, in the assay with HOP-92, with EKVX, with SW-620 and with COLO 205 was > 100 µM (inactive) each time. Also, the GI50 in the assay on CCRF-CEM, in the assay with OVCAR-3, in the assay with HOP-62, with BT-549, in the assay with NCI-H460 and in the assay with MDA-MB-435 was > 100 µM (inactive) each time.

With `Cc1c2c(Cl)c3c(c(Cl)c2c(C)c2c(Cl)c4c(c(Cl)c12)C(c1ccccc1)(c1ccccc1)C4(c1ccccc1)c1ccccc1)C(c1ccccc1)(c1ccccc1)C3(c1ccccc1)c1ccccc1`, the GI50 with OVCAR-8, in the assay on RXF 393, in the assay on K562, with SNB-75, with UO-31 and with HT-29 was > 100 µM (inactive) each time. For the same molecule, the GI50 with A549, in the assay on SF-268, in the assay on HOP-92, in the assay on EKVX, in the assay on SW-620 and in the assay with COLO 205 was > 100 µM (inactive) in each case. Further, the GI50 in the assay on CCRF-CEM, in the assay on OVCAR-3, with HOP-62, with BT-549, with NCI-H460 and with MDA-MB-435 was > 100 µM (inactive) throughout.

Turning to `CN(C)CCn1c(=O)c2ccc(NCCN3CCNCC3)c3c(=O)c4ccccc4n(c1=O)c23`, the GI50 in the assay on OVCAR-8 is 1.91 µM (inactive); in the assay on K562, 0.231 µM (active); with SNB-75 it was 2.13 µM (inactive); with UO-31 it was 4.94 µM (inactive); in the assay on HT-29, 0.82 µM (active); in the assay on HL-60 it was 2.59 µM (inactive). The GI50 with A549 was 0.962 µM (active); with SF-268 it was 1.13 µM (inactive); with HOP-92, 0.776 µM (active); with EKVX, 1.87 µM (inactive); with SW-620, 0.378 µM (active); in the assay with COLO 205, 1.35 µM (inactive). Further, the GI50 in the assay with CCRF-CEM is 0.207 µM (active); with OVCAR-3 it was 5.05 µM (inactive); in the assay on HOP-62 it was 4.06 µM (inactive); in the assay with BT-549, 7.33 µM (inactive); in the assay with NCI-H460, 0.586 µM (active); with MDA-MB-435, 2.86 µM (inactive).
